Measurements from PubChem BioAssay (NCI).
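How tested: cells in 96-well plates exposed to compound for 48 hours at five concentrations. TGI denotes the concentration required for complete inhibition of growth.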

Key:
Test in all cases: NCI-60 cell line screen, 48 h
HOP-62 NSCLC = tested on: HOP-62 NSCLC
LOX IMVI melanoma = tested on: LOX IMVI melanoma
BT-549 breast = tested on: BT-549 breast
UO-31 renal = tested on: UO-31 renal
HCT-15 colon = tested on: HCT-15 colon
UACC-62 melanoma = tested on: UACC-62 melanoma
HS 578T breast = tested on: HS 578T breast
HCC-2998 colon = tested on: HCC-2998 colon
786-0 renal = tested on: 786-0 renal
M14 melanoma = tested on: M14 melanoma
DU-145 prostate = tested on: DU-145 prostate
SNB-19 CNS = tested on: SNB-19 CNS
SF-539 CNS = tested on: SF-539 CNS
T-47D breast = tested on: T-47D breast

Row | Structure (SMILES) | TGI (HOP-62 NSCLC) [µM] | TGI (LOX IMVI melanoma) [µM] | TGI (BT-549 breast) [µM] | TGI (UO-31 renal) [µM] | TGI (HCT-15 colon) [µM] | TGI (UACC-62 melanoma) [µM] | TGI (HS 578T breast) [µM] | TGI (HCC-2998 colon) [µM] | TGI (786-0 renal) [µM] | TGI (M14 melanoma) [µM] | TGI (DU-145 prostate) [µM] | TGI (SNB-19 CNS) [µM] | TGI (SF-539 CNS) [µM] | TGI (T-47D breast) [µM]
1 | c1ccc2[nH]c3[nH]c4[nH]c5ccccc5[nH]c4[nH]c3[nH]c2c1 | > 100 | > 100 | > 100 | > 100 | > 100 | > 100 | > 100 | > 100 | > 100 | > 100 | > 100 | > 100 | > 100 | 
2 | Cn1cnc2c(OCC3CCCCC3)nc(N)nc21 | > 100 | > 100 | > 100 | > 100 | > 100 | > 100 | > 100 | > 100 | > 100 | > 100 | > 100 | > 100 | > 100 | 
3 | CN(C)CCCSc1c2ccccc2nc2cc(NCC(=O)Nc3ccccc3-c3ccccc3NC(=O)CNc3ccc4c(SCCCN(C)C)c5ccccc5nc4c3)ccc12 | > 100 | > 100 |  | > 100 | > 100 | > 100 |  | > 100 | > 100 | > 100 |  | > 100 | > 100 | 
4 | Cn1c(=O)c2c(nc(C[N+]3([O-])CCOCC3)n2C)n(C)c1=O | > 100 | > 100 |  | > 100 | > 100 | > 100 |  | > 100 | > 100 | > 100 |  | > 100 | > 100 | 
5 | C=C(C)[C@@H]1CC[C@@H](C)[C@](O)([C@@H]2C[C@@H]([C@H](COC(=O)c3ccccc3)OC(=O)c3ccccc3)OC2=O)C1 | > 100 | > 100 | > 100 | > 100 | > 100 | > 100 |  | > 100 | > 100 | > 100 | > 100 | > 100 | > 100 | 
6 | O=c1cc(NCC2CCCCC2)[nH]c(=O)[nH]1 | > 100 | > 100 | > 100 | > 100 | > 100 |  | > 100 | > 100 | > 100 | > 100 | > 100 | > 100 | > 100 | 
7 | CC1(C)C=[N+]([O-])C(C)(C)N1 | > 100 | > 100 |  | > 100 | > 100 | > 100 | > 100 | > 100 | > 100 | > 100 | > 100 | > 100 | > 100 | > 100
8 | Cc1nccc2c1cnc1ccnn12 | > 100 | > 100 |  | > 100 | > 100 |  |  | > 100 | > 100 | > 100 |  | > 100 | > 100 | 
9 | O=C1C(Cl)C(c2ccc(Cl)cc2)N1n1cnc2ccccc2c1=O (centres undefined) | > 100 | > 100 |  | > 100 | > 100 | > 100 |  | > 100 | > 100 | > 100 |  | > 100 |  | 
10 | O=[N+]([O-])/C(Cl)=C(\Nc1ccccc1)C(Cl)=C(Cl)Cl | 56.6 | 88.5 |  | > 100 | 66.6 | 94.5 | 69.6 | 94.4 | > 100 | 58.4 | > 100 | > 100 | 47.4 | > 100
11 | COC(C/C(=C/CO[Si](C(C)C)(C(C)C)C(C)C)C(=O)Nc1ccccc1I)OC | > 100 | 45.5 |  | > 100 | 71.1 | > 100 | > 100 | 40 | > 100 | > 100 | > 100 | 42.5 | 48.4 | > 100
12 | CO/C(=N\N=C\c1ccc(OC)cc1OC)c1ccncc1 | > 10 | > 10 |  | > 10 | > 10 |  |  | > 10 | > 10 |  |  | > 10 | > 10 | > 10
13 | COC(=O)[C@H]1C=C[C@@H](C)n2c(=O)c3ccccc3c(=O)n21 | > 100 | > 100 |  | > 100 | > 100 |  |  | > 100 | > 100 | > 100 |  | > 100 | > 100 | 
14 | CCOC(=O)C1=C(O)c2ccccc2C(=O)C1=O | > 100 | > 100 |  | > 100 | > 100 | > 100 |  | > 100 | > 100 | > 100 |  | > 100 | > 100 | 
15 | COc1ccc(OC)c(NC(=O)C(=O)Nn2c(=S)[nH]c3ccccc3c2=O)c1 | > 100 | > 100 | > 100 | > 100 | > 100 | > 100 | > 100 | > 100 | > 100 | > 100 |  | > 100 | > 100 | > 100
16 | Cn1c2ccccc2c(=O)c2c(O)cc3c(c21)C=CC1(CCCC1)O3 | > 100 | > 100 | > 100 |  | > 100 | > 100 | > 100 | > 100 | > 100 | > 100 | > 100 | > 100 | > 100 | 
17 | C[C@@H]1C[C@@H](O)[C@@]2(O)C13CC(=O)OC(C3)[C@@H](C)[C@@]2(C)CO (some centres undefined) | > 100 | > 100 |  | > 100 | > 100 | > 100 | > 100 | > 100 | > 100 | > 100 | > 100 | > 100 | > 100 | > 100
18 | NC(=O)C12C3C4C1C1C2C3C41C(N)=O (centres undefined) | > 100 | > 100 |  | > 100 | > 100 | > 100 |  | > 100 | > 100 | > 100 |  | > 100 | > 100 | 
19 | CCOC(=O)c1nc2ccc(Cl)cc2c2c1CCO2 | > 100 | > 100 |  |  | > 100 | > 100 |  | > 100 | > 100 | > 100 |  | > 100 | > 100 | 
20 | CC1(C)C=C(/C=N/Nc2ccc(Br)cc2)C(C#N)=C(O)C1(C#N)C#N | > 100 | > 100 |  | 86 |  | > 100 | > 100 | > 100 | > 100 | > 100 | > 100 | > 100 | > 100 | > 100
